# Measured values from patent US9572345B2, “Pesticidal composition in the form of aqueous emulsion” (Sumitomo Chemical Company, Limited, priority 2012, dated 2017).
# Assay: Retention rate of the agriculturally active ingredient after xenon light irradiation (neat film on petri dish)
# Assay type: physicochemical
# Details: xenon light (290 nm cutoff), intensity 0.68 W/m^2 at 340 nm, 8 hours, 35° C.; 5 mg air-dried on glass petri dish; HPLC
# Description: A method for the calculation of a retention rate of the agriculturally active ingredient defined above is more specifically as follows. First, 250 mg of the agriculturally active ingredient is dissolved in 50 ml of a solvent such as acetone, which can sufficiently dissolve the agriculturally active ingredient and also has high volatility, and 1 mL of the solution is added to a glass petri dish having a diameter of 6 cm using a one-mark pipette, spread entirely over the petri dish, and then air-dried at room temperature. The petri dish is covered with a lid made of quartz glass and then set in a weathering tester (manufactured by Q-Lab Corporation under the trade name of Q-SUN Xenon Accelerated Weathering Tester, Model Xe-3) equipped with a borosilicate filter (manufactured by Q-Lab Corporation under the trade name of Daylight-BB Optical Filter) attached thereto. After irradiation with xenon light under the conditions of an intensity at 340 nm of 0.68 W/m^2 and a temperature of 35° C. (35° C. as measured by an insulated black panel thermometer) for 8 hours, the amount of the agriculturally active ingredient remaining on the petri dish is determined by a known determination method such as high-performance liquid chromatography. It is possible to determine a retention rate by calculating as the weight percentage relative to 5 mg of the agriculturally active ingredient used above. […]
smiles,measurement,value
C=CCSC(=O)n1c(N)c(-c2ccccc2C)c(=O)n1C(C)C [fenpyrazamine],retention rate after irradiation with xenon light,28.1%
